From patent publication US20250236629A1, “MEDIUM- OR MACRO-CYCLIC BENZYL-SUBSTITUTED HETEROCYCLE DERIVATIVES AND RELATED USES” (CENTESSA PHARMACEUTICALS (UK) LIMITED, priority 2022, published 2025)

Molecular target: T1, human orexin type 2 receptor (hOX2R) (Homo sapiens, UniProt O43614)
T1 construct: the Orexin receptor cDNA was inserted into pcDNA3.1(+) plasmid vector; expressed in transfected cells
T1 sequence (O43614 1-444): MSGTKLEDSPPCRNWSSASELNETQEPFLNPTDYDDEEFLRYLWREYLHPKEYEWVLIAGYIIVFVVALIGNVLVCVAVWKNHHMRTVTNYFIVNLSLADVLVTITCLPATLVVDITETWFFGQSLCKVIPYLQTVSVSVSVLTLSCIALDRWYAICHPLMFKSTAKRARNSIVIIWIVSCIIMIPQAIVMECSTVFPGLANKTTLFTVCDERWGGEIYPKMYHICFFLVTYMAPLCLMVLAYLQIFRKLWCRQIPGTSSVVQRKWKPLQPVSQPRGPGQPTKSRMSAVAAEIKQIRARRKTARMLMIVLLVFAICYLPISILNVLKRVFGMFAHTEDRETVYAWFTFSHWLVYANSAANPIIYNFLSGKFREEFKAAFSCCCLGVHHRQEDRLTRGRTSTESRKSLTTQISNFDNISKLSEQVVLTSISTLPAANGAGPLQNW
Assay: Orexin type 2 receptor agonist activity, intracellular Ca2+ (FLIPR TETRA) in CHO cells
Assay type: cell-based
Conditions: CHO cells expressing hOX2R; Ca2+ fluorescence area; 100% = 10 nM human orexin A; read-out: hOx2 pEC50 (converted)
Method: Stable cell line generation. Obtainment of cells stably expressing either human orexin type 2 or human orexin type 1 receptor: to obtain a stable cell line the Orexin receptor cDNA was inserted into pcDNA3.1(+) plasmid vector and clones identified by G418 drug resistance selection. […] A single clone for OX2R—CHO and OX1R—CHO were grown in bulk and frozen to generate a cell bank for routine screening.
Measurement of orexin type 2 receptor agonist activity. Chinese hamster ovary (CHO) cells expressing human orexin type 2 receptor (hOX2R) or human orexin type 1 receptor (hOX1R) were seeded in each well of 384 well black clear bottom plates (BD Flacon) at 10,000 cells per well and cultured for 24 hr in an Ham's F12 (Gibco) medium containing 10% fetal calf serum (Sigma Aldrich) under the conditions of 37° C., 5% CO2. After removal of the medium, 50 μl of assay buffer 1 (0.1% bovine serum albumin (Sigma Aldrich), 20 mM HEPES (Molecular Dimensions), […] probenecid (Sigma Aldrich), 1× Calcium 5 dye (Molecular Devices) in Hank's balanced salt solution (Invitrogen)) was added, and the cells were incubated for 60 min under the conditions of 37° C., 5% CO2. A test compound was dissolved in dimethyl sulfoxide (Sigma Aldrich) to 10 mM, and then diluted with assay buffer 2 (20 mM HEPES, Hank's balanced salt solution, 0.1% bovine serum albumin). For the reaction, a test compound solution (10 μl) was added using Fluorescent Imaging Plate Reader TETRA (FLIPR TETRA: manufactured by Molecular Devices), a fluorescence value (excitation wavelength 488 nm, measurement wavelength 570 nm) of each well was measured every one second for 2 min, and the agonist activity was determined using the area of the fluorescence value as an indicator of intracellular Ca^2+ concentration. The agonist activity of the test compound was calculated assuming that the fluorescence value of the well added with only the dilution buffer was 0% and the fluorescence value of the well added with 10 nM human orexin A (Tocris) buffer was 100%.
Values of hOx2 pEC50 in Table B are presented in ranges, in which 6.0≤“+”<7.0, 7.0≤“++”<8.0, 8.0≤“+++”<9.0, and 9.0≤“++++”<10.4.

Row | EC50 [nM] | SMILES
1 | 10 to 100 | C[C@H]1CN2C(=O)N(C)CCOc3ccccc3-c3cccc(c3F)C[C@H]2[C@H]1NS(=O)(=O)CF [Example 2, 1-fluoro-N-((4^2S,4^3S,4^4S)-2^2-fluoro-4^4,6-dimethyl-5-oxo-9-oxa-6-aza-4(2,1)-pyrrolidina-1(1,2),2(1,3)-dibenzenacyclononaphane-4^3-yl)methanesulfonamide]
2 | 1 to 10 | CCS(=O)(=O)N[C@H]1[C@@H](F)CN2C(=O)CCOc3ccccc3-c3cccc(c3F)C[C@@H]12 [Example 29, N-((4^2S,4^3R,4^4S)-2^2,4^4-difluoro-5-oxo-8-oxa-4(2,1)-pyrrolidina-1(1,2),2(1,3)-dibenzenacyclooctaphane-4^3-yl)ethanesulfonamide]
3 | 1 to 10 | CCS(=O)(=O)N[C@H]1[C@@H](F)CN2C(=O)N(C)CCOc3c(F)cccc3-c3cccc(c3)C[C@@H]12 [Example 16, N-((4^2S,4^3R,4^4S)-1^3,4^4-difluoro-6-methyl-5-oxo-9-oxa-6-aza-4(2,1)-pyrrolidina-1(1,2),2(1,3)-dibenzenacyclononaphane-4^3-yl)ethanesulfonamide]
4 | 10 to 100 | CN1CCOc2ccccc2-c2cccc(c2F)C[C@H]2[C@@H](NS(=O)(=O)CF)CCCN2C1=O [Example 32, 1-fluoro-N-((4^2S,4^3S)-2^2-fluoro-6-methyl-5-oxo-9-oxa-6-aza-4(2,1)-piperidina-1(1,2),2(1,3)-dibenzenacyclononaphane-4^3-yl)methanesulfonamide]
5 | 1 to 10 | CN1CCOc2c(F)cccc2-c2cccc(c2F)C[C@H]2[C@@H](NS(=O)(=O)CF)[C@@H](F)CN2C1=O [Example 12, 1-fluoro-N-((4^2S,4^3R,4^4S)-1^3,2^2,4^4-trifluoro-6-methyl-5-oxo-9-oxa-6-aza-4(2,1)-pyrrolidina-1(1,2),2(1,3)-dibenzenacyclononaphane-4^3-yl)methanesulfonamide]
6 | 1 to 10 | CC(C)(F)S(=O)(=O)N[C@H]1CCCN2C(=O)CCOc3ccccc3-c3cccc(c3F)C[C@@H]12 [Example 33, 2-fluoro-N-((4^2S,4^3S)-2^2-fluoro-5-oxo-8-oxa-4(2,1)-piperidina-1(1,2),2(1,3)-dibenzenacyclooctaphane-4^3-yl)propane-2-sulfonamide]
7 | 1 to 10 | O=C1CCOc2ccccc2-c2cccc(c2F)C[C@H]2[C@@H](NS(=O)(=O)C3(F)CC3)CCCN12 [Example 36, 1-fluoro-N-((4^2S,4^3S)-2^2-fluoro-5-oxo-8-oxa-4(2,1)-piperidina-1(1,2),2(1,3)-dibenzenacyclooctaphane-4^3-yl)cyclopropane-1-sulfonamide]
8 | 1 to 10 | CCS(=O)(=O)N[C@H]1[C@@H](F)CN2C(=O)N(C)CCOc3ccccc3-c3cccc(c3)C[C@@H]12 [Example 15, N-((4^2S,4^3R,4^4S)-4^4-fluoro-6-methyl-5-oxo-9-oxa-6-aza-4(2,1)-pyrrolidina-1(1,2),2(1,3)-dibenzenacyclononaphane-4^3-yl)ethanesulfonamide]
9 | 1 to 10 | CCS(=O)(=O)N[C@H]1[C@@H](F)CN2C(=O)N(C)CCOc3c(F)cccc3-c3cccc(c3F)C[C@@H]12 [Example 18, N-((4^2S,4^3R,4^4S)-1^3,2^2,4^4-trifluoro-6-methyl-5-oxo-9-oxa-6-aza-4(2,1)-pyrrolidina-1(1,2),2(1,3)-dibenzenacyclononaphane-4^3-yl)ethanesulfonamide]
10 | 0.0398 to 1 | CC(C)S(=O)(=O)N[C@H]1CCCN2C(=O)CCOc3ccccc3-c3cccc(c3F)C[C@@H]12 [Example 3, N-((4^2S,4^3S)-22-fluoro-5-oxo-8-oxa-4(2,1)-piperidina-1(1,2),2(1,3)-dibenzenacyclooctaphane-4^3-yl)propane-2-sulfonamide]

The next lines start with the molecule.

Row | SMILES | EC50 [nM]
11 | CN1CCOc2c(F)cc(F)cc2-c2cccc(c2F)C[C@H]2[C@@H](NS(=O)(=O)C(F)F)C3(CC3)CN2C1=O [Example 39, 1,1-difluoro-N-((2′S,3′S)-2′,3′,5′-trifluoro-6′-methyl-5′-oxospiro[cyclopropane-1,4′-9-oxa-6-aza-4(2,1)-pyrrolidina-1(1,2),2(1,3)-dibenzenacyclononaphan]-3′-yl)methanesulfonamide] | 1 to 10
12 | CCS(=O)(=O)N[C@@H]1[C@@H]2Cc3cccc(c3F)-c3cccc(F)c3OCCN(C)C(=O)N2CC12CC2 [Example 9, N-((2′S,3′S)-2′,3′-difluoro-6′-methyl-5′-oxospiro[cyclopropane-1,4′-9-oxa-6-aza-4(2,1)-pyrrolidina-1(1,2),2(1,3)-dibenzenacyclononaphan]-3′-yl)ethanesulfonamide] | 1 to 10
13 | CN1CCOc2c(F)cccc2-c2cccc(c2)C[C@H]2[C@@H](NS(=O)(=O)C(F)F)[C@@H](F)CN2C1=O [Example 20, N-((4^2S,4^3R,4^4S)-1^3,4^4-difluoro-6-methyl-5-oxo-9-oxa-6-aza-4(2,1)-pyrrolidina-1(1,2),2(1,3)-dibenzenacyclononaphane-4^3-yl)-1,1-difluoromethanesulfonamide] | 1 to 10
14 | CN1CCOc2c(F)cccc2-c2cccc(c2)C[C@H]2[C@@H](NS(=O)(=O)CF)C3(CC3)CN2C1=O [Example 30, 1-fluoro-N-((2′S,3′S)-3′-fluoro-6′-methyl-5′-oxospiro[cyclopropane-1,4′-9-oxa-6-aza-4(2,1)-pyrrolidina-1(1,2),2(1,3)-dibenzenacyclononaphan]-3′-yl)methanesulfonamide] | 10 to 100
15 | O=C1CCOc2c(F)cccc2-c2cccc(c2)C[C@H]2[C@@H](NS(=O)(=O)C(F)F)CCCN12 [Example 24, 1,1-difluoro-N-((4^2S,4^3S)-1^3-fluoro-5-oxo-8-oxa-4(2,1)-piperidina-1(1,2),2(1,3)-dibenzenacyclooctaphane-4^3-yl)methanesulfonamide] | 1 to 10
16 | CN1CCOc2ccccc2-c2cccc(c2)C[C@H]2[C@@H](NS(=O)(=O)C(C)(C)F)C3(CC3)CN2C1=O [Example 38, 2-fluoro-N-((2′S,3′S)-6′-methyl-5′-oxospiro[cyclopropane-1,4′-9-oxa-6-aza-4(2,1)-pyrrolidina-1(1,2),2(1,3)-dibenzenacyclononaphan]-3′-yl)propane-2-sulfonamide] | 1 to 10
17 | CCN1CCOc2ccccc2-c2cccc(c2)C[C@H]2[C@@H](NS(=O)(=O)C(F)F)C3(CC3)CN2C1=O [Example 10, N-((2′S,3′S)-6′-ethyl-5′-oxospiro[cyclopropane-1,4′-9-oxa-6-aza-4(2,1)-pyrrolidina-1(1,2),2(1,3)-dibenzenacyclononaphan]-3′-yl)-1,1-difluoromethanesulfonamide] | 1 to 10
18 | CN1CCOc2c(F)cccc2-c2cccc(c2)C[C@H]2[C@@H](NS(=O)(=O)C(F)F)C3(CC3)CN2C1=O [Example 34] | 1 to 10
19 | CN1CCOc2c(F)cccc2-c2cccc(c2)C[C@H]2[C@@H](NS(=O)(=O)CF)C(F)(F)CN2C1=O [Example 7, 1-fluoro-N-((4^2S,4^3R)-1^3,4^4,4^4-trifluoro-6-methyl-5-oxo-9-oxa-6-aza-4(2,1)-pyrrolidina-1(1,2),2(1,3)-dibenzenacyclononaphane-4^3-yl)methanesulfonamide] | 1 to 10
20 | CN1CCOc2ccccc2-c2cccc(c2F)C[C@H]2[C@@H](NS(=O)(=O)C(F)F)C3(CC3)CN2C1=O [Example 4, 1,1-difluoro-N-((2′S,3′S)-2′-fluoro-6′-methyl-5′-oxospiro[cyclopropane-1,4′-9-oxa-6-aza-4(2,1)-pyrrolidina-1(1,2),2(1,3)-dibenzenacyclononaphan]-3′-yl)methanesulfonamide] | 1 to 10
